Source: patent publication US9856274B2, “Substituted pyrazolo[1,5-a]pyridines as PDE-10 inhibitors” (Sunovion Pharmaceuticals Inc., priority 2011, dated 2018)

Each compound was assayed against recombinant human PDE-10 enzyme (Homo sapiens (Human), UniProt Q9Y233) (assay: Human PDE-10 inhibition enzyme assay (IMAP PDE Fluorescence Polarization)). Conditions: recombinant human PDE-10 expressed in baculoviral system; Fluorescein-labeled cAMP/cGMP substrate; 40-minute incubation at 37° C.
Format: biochemical
Method: In one embodiment, the compounds provided herein were assayed for their ability to inhibit human PDE-10A. In one embodiment, the activities of the compounds were determined using the Molecular Devices IMAP PDE Fluorescence Polarization assay using recombinant human PDE-10 enzyme expressed in a baculoviral system. Briefly, 10 μL of a compound (0.2 nM-20 μM) was added to either a 96-well half area black plate or a 384-well black plate along with 10 μL of Fluorescein-labeled cAMP/cGMP substrate as per manufacturer's instructions and 10 μL of PDE enzyme (activity 0.1 U). Following a 40-minute incubation at 37° C., 60 μL of IMAP binding reagent was added. The plate was then read on a Perkin Elmer Victor (480-535 nm). The data was analyzed using Prism Software (GraphPad Inc, San Diego, Calif.).

Chain of recombinant human PDE-10 enzyme (Q9Y233 whole entry): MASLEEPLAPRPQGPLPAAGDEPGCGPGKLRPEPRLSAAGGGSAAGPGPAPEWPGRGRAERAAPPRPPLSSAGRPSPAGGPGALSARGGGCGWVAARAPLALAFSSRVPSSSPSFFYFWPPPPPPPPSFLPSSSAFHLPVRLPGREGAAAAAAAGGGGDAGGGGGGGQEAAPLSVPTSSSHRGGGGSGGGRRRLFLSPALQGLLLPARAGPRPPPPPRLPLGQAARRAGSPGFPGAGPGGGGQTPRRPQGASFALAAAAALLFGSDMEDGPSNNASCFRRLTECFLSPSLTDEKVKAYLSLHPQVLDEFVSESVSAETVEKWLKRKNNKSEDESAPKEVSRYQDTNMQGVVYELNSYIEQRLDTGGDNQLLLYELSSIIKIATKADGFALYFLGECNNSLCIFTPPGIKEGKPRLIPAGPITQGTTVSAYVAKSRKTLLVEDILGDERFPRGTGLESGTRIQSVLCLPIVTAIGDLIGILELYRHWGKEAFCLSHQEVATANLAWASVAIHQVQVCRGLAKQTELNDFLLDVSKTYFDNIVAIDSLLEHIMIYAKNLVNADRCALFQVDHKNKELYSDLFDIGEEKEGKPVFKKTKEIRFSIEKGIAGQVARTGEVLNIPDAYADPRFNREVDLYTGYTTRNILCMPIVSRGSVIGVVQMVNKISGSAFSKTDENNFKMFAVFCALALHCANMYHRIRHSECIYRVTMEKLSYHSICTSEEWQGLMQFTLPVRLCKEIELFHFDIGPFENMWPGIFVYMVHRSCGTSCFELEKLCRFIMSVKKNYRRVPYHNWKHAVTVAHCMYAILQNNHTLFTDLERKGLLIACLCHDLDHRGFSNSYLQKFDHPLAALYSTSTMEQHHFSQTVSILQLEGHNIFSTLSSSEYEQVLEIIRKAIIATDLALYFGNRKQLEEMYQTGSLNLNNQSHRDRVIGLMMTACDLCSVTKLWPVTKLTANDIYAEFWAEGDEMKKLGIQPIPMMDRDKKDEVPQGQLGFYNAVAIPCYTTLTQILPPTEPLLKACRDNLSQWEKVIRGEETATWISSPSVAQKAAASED

SMILES | IC50
Cc1cccc2nc(CCc3nc4c5cccnc5ccn4n3)nn12 [Compound 14] | 10 to 100 nM
c1cnc2c(c1)ccn1nc(CCc3nc4ccccn4n3)nc21 [Compound 22] | > 500 nM
Cc1cnc(C)n2nc(CCc3nc4c5cccnc5ccc4n3C)nc12 [Compound 10] | 10 to 100 nM
Cc1cccc2nc(CCc3nc4n(n3)CCc3ncccc3-4)nn12 [Compound 23, 2-(2-(5-Methyl-[1,2,4]triazolo[1,5-a]pyridin-2-yl)ethyl)-5,6-dihydro-[1,2,4]triazolo[5,1-f][1,6]naphthyridine] | > 500 nM
Cc1ncc(C)n2cc(CCc3nc4c5cccnc5ccc4n3C)nc12 [Compound 25] | 10 to 100 nM
Cc1ncc(C)n2nc(CCc3nc4ccc5ncccc5n4n3)nc12 [Compound 12] | 100 to 500 nM
Cc1ncc(C)n2cc(CCc3nc4c5cccnc5ccn4n3)nc12 [Compound 27] | 10 to 100 nM
Cc1ncc(C)n2nc(CCc3nc4c(ccc5ncccc54)[nH]3)cc12 [Compound 28] | 10 to 100 nM
Cc1ncc(C)n2nc(CCc3nc4c5cccnc5ccn4n3)nc12 [Compound 13] | 10 to 100 nM
Cn1c(CCc2nc3ccccc3o2)nc2c3cccnc3ccc21 [Compound 4] | 100 to 500 nM
Cc1cc(C)n2nc(CCc3nc4c5cccnc5ccn4n3)nc2n1 [Compound 17] | 10 to 100 nM
Cc1ncc(C)n2nc(CCc3cn4ccccc4n3)nc12 [Compound 1] | 10 to 100 nM
Cc1ncc(C)n2nc(CC(C)c3nc4c5cccnc5ccc4n3C)nc12 (centres unmarked) [Compound 30] | 10 to 100 nM
Cc1ccc(C)n2cc(CCc3nc4c5cccnc5ccn4n3)nc12 [Compound 34] | 100 to 500 nM
Cc1ccc(C)n2cc(CCc3nc4c5cccnc5ccc4n3C)nc12 [Compound 32] | 10 to 100 nM
Cn1c(CCc2cn3ccncc3n2)nc2c3cccnc3ccc21 [Compound 31] | > 500 nM
Cc1ncc(C)n2nc(CCc3nc4ccccn4n3)nc12 [Compound 3] | > 500 nM
Cn1c(CCc2nc3ccccn3n2)nc2c3cccnc3ccc21 [Compound 5] | 10 to 100 nM
Cc1ncc(C)n2nc(CCc3nc4c5cccnc5ccn4n3)cc12 [Compound 35] | 10 to 100 nM
Cn1c(CCc2nc3ccccn3n2)nc2c3ncccc3ccc21 [Compound 20] | 100 to 500 nM
Cc1ncc(C)n2nc(CCc3nc4c5c(ccn4c3C)NCCO5)nc12 [Compound 41] | 10 to 100 nM
Cc1ccc(C)n2nc(CCc3nc4c5cccnc5ccc4n3C)nc12 [Compound 11] | ≤ 10 nM
Cn1c(CCc2cn3ccccc3n2)nc2c3cccnc3ccc21 [Compound 26] | > 500 nM
Cn1c(CCc2nc3ccccn3n2)nc2c3nccnc3ccc21 [Compound 21] | 100 to 500 nM
Cc1ccc(C)n2nc(CCc3nc4c5cccnc5ccn4n3)nc12 [Compound 16] | ≤ 10 nM
c1cnc2ccn3nc(CCc4nc5ccccn5n4)nc3c2c1 [Compound 15] | > 500 nM

Results, then the compound that gave them:

IC50 | SMILES
≤ 10 nM | Cc1ncc(C)n2nc(C(C)Cc3nc4c5cccnc5ccc4n3C)nc12 (centres unmarked) [Compound 29]
≤ 10 nM | Cc1ncc(C)n2nc(CCc3nc4c(ccc5ncccc54)[nH]3)nc12 [Compound 36]
≤ 10 nM | Cc1ccc(Cl)c2cc(CCc3nc4c5cccnc5ccc4n3C)nn12 [Compound 33]
≤ 10 nM | Cc1ncc(C)n2nc(CCc3nc4c5c(ccc4n3C)CCCC5)nc12 [Compound 37]
≤ 10 nM | Cc1ncc(C)n2nc(CCc3nc4c5c(ccc4n3C)OCCO5)nc12 [Compound 42]
≤ 10 nM | Cc1ncc(C)n2nc(CCc3nc4c5cccnc5ccn4c3C)nc12 [Compound 39]
≤ 10 nM | Cc1cccc2nc(CCc3nc4c5cccnc5ccc4n3C)nn12 [Compound 8]
≤ 10 nM | Cc1ncc(C)n2nc(CCc3nc4c5c(ccn4c3C)CCCC5)nc12 [Compound 38]
≤ 10 nM | Cc1cccn2nc(CCc3nc4c5cccnc5ccc4n3C)nc12 [Compound 9]
≤ 10 nM | Cc1ncc(C)n2nc(CCc3nc4c5nccnc5ccc4n3C)nc12 [Compound 19]
≤ 10 nM | Cc1ncc(C)n2nc(CCc3nc4c5cccnc5ccc4n3C)cc12 [Compound 24]
≤ 10 nM | Cc1ncc(C)n2nc(CCc3nc4c5cccnc5ccc4n3C)nc12 [Compound 6]
≤ 10 nM | Cc1ncc(C)n2nc(CCc3nc4c5ncccc5ccc4n3C)nc12 [Compound 18]
≤ 10 nM | Cc1ncc(C)n2nc(CCc3nc4c5cccnc5sc4n3C)nc12 [Compound 7]
≤ 10 nM | Cc1c(CCc2nc3c(F)ccc(C)n3n2)nc2c3cccnc3ccn12 [Compound 40]
